US11542274B1, “Therapeutic compounds and methods of use thereof” (AGENCY FOR SCIENCE, TECHNOLOGY AND RESEARCH (A*STAR), priority 2019, dated 2023)

system: RAMOS cells (Burkitt's lymphoma cell line); assay: Anti-proliferation assay (CellTiter-Glo); type: cell-based; settings: Homo sapiens, 72 h, 3 days
Experimental: In cell growth experiments, cells were seeded in 96-well cell culture plates at a density of 3000 of RAMOS cells/well in 100 μL of culture medium. 100 μL of the diluted solution containing the tested compound was added to the appropriate wells of the cell plate. After addition of the tested compound, the cells were incubated at 37° C. in an atmosphere of 5% CO2 for 3 days. CellTiter-Glo (CTG) reagent from the Promega CellTiter-Glo Luminescent Cell Viability Assay kit (#G7572) was added into an OptiPlate 96 (Perkin Elmer, White, Opaque, #6005299) in the dark, incubated for at least 2 hrs, and luminescence signal was read using Tecan Safire II Multi-Mode Plate Reader. The GI50 was calculated by nonlinear regression analysis using GraphPad Prism5 software.
GI50 is the concentration for 50% of maximal inhibition of cell proliferation.

With `Cc1sc2c(c1C)C(c1ccc(Cl)cc1)=N[C@@H](CC(=O)Nc1ccc(OCCOCCOCCOCCNC(=O)c3cccc(-c4ccc5c(c4)NC(=O)C5)c3)cc1)c1nnc(C)n1-2` [Compound 102, (S)—N-(2-(2-(2-(2-(4-(2-(4-(4-chlorophenyl)-2,3,9-trimethyl-6H-thieno[3,2-f][1,2,4]triazolo[4,3-a][1,4]diazepin-6-yl)acetamido)phenoxy)ethoxy)ethoxy)ethoxy)ethyl)-3-(2-oxoindolin-6-yl)benzamide] as the molecule, how does the GI50 read?
Its GI50 is 0.1 to 1 µM.

With `Cc1sc2c(c1C)C(c1ccc(Cl)cc1)=N[C@@H](CC(=O)Nc1ccc(OCCOCCOCCOCCNC(=O)c3cccc(-c4ccc5c(c4)CC(=O)N5)c3)cc1)c1nnc(C)n1-2` [Compound 103, (S)—N-(2-(2-(2-(2-(4-(2-(4-(4-chlorophenyl)-2,3,9-trimethyl-6H-thieno[3,2-f][1,2,4]triazolo[4,3-a][1,4]diazepin-6-yl)acetamido)phenoxy)ethoxy)ethoxy)ethoxy)ethyl)-3-(2-oxoindolin-5-yl)benzamide] as the molecule, how does the GI50 read?
The GI50 was 0.1 to 1 µM.

With `Cc1sc2c(c1C)C(c1ccc(Cl)cc1)=N[C@@H](CC(=O)Nc1ccc(OCCOCCOCCOCCNc3ccc(-c4ccc5c(c4)CC(=O)N5)cc3)cc1)c1nnc(C)n1-2` [Compound 104, (S)-2-(4-(4-chlorophenyl)-2,3,9-trimethyl-6H-thieno[3,2-f][1,2,4]triazolo[4,3-a][1,4]diazepin-6-yl)-N-(4-(2-(2-(2-(2-((4-(2-oxoindolin-5-yl)phenyl)amino)ethoxy)ethoxy)ethoxy)ethoxy)phenyl)acetamide] as the molecule, how does the GI50 read?
Its GI50 is 0.001 to 0.1 µM.

With `Cc1sc2c(c1C)C(c1ccc(Cl)cc1)=N[C@@H](CC(=O)NCCCCCNc1ncccc1-c1ccc3c(c1)CC(=O)N3)c1nnc(C)n1-2` [Compound 105, (S)-2-(4-(4-chlorophenyl)-2,3,9-trimethyl-6H-thieno[3,2-f][1,2,4]triazolo[4,3-a][1,4]diazepin-6-yl)-N-(5-((3-(2-oxoindolin-5-yl)pyridin-2-yl)amino)pentyl)acetamide] as the molecule, how does the GI50 read?
Its GI50 is 0.001 to 0.1 µM.

How did the GI50 turn out when `Cc1sc2c(c1C)C(c1ccc(Cl)cc1)=N[C@@H](CC(=O)Nc1ccc(OCCOCCNC(=O)c3cccc(-c4ccc5c(c4)CC(=O)N5)c3)cc1)c1nnc(C)n1-2` [Compound 106, (S)—N-(2-(2-(4-(2-(4-(4-chlorophenyl)-2,3,9-trimethyl-6H-thieno[3,2-f][1,2,4]triazolo[4,3-a][1,4]diazepin-6-yl)acetamido)phenoxy)ethoxy)ethyl)-3-(2-oxoindolin-5-yl)benzamide] was run?
Its GI50 is 0.001 to 0.1 µM.

How did the GI50 turn out when `Cc1sc2c(c1C)C(c1ccc(Cl)cc1)=N[C@@H](CC(=O)NCCOCCOCCOCCNc1ncccc1-c1ccc3c(c1)CC(=O)N3)c1nnc(C)n1-2` [Compound 107, (S)-2-(4-(4-chlorophenyl)-2,3,9-trimethyl-6H-thieno[3,2-f][1,2,4]triazolo[4,3-a][1,4]diazepin-6-yl)-N-(2-(2-(2-(2-((3-(2-oxoindolin-5-yl)pyridin-2-yl)amino)ethoxy)ethoxy)ethoxy)ethyl)acetamide] was run?
Its GI50 is 0.001 to 0.1 µM.

For `Cc1sc2c(c1C)C(c1ccc(Cl)cc1)=N[C@@H](CC(=O)NCCOCCOCCOCCNc1ncccc1-c1ccc3c(c1)NC(=O)C3)c1nnc(C)n1-2` [Compound 108, (S)-2-(4-(4-chlorophenyl)-2,3,9-trimethyl-6H-thieno[3,2-f][1,2,4]triazolo[4,3-a][1,4]diazepin-6-yl)-N-(2-(2-(2-(2-((3-(2-oxoindolin-6-yl)pyridin-2-yl)amino)ethoxy)ethoxy)ethoxy)ethyl)acetamide], which GI50 is on record?
The GI50 was 0.1 to 1 µM.

How did the GI50 turn out when `Cc1sc2c(c1C)C(c1ccc(Cl)cc1)=N[C@@H](CC(=O)NCCOCCOCCOCCC(=O)NC1CCN(C(=O)c3ccc4c(c3)CC(=O)N4)CC1)c1nnc(C)n1-2` [Compound 109, (S)-3-(2-(2-(2-(2-(4-(4-chlorophenyl)-2,3,9-trimethyl-6H-thieno[3,2-f][1,2,4]triazolo[4,3-a][1,4]diazepin-6-yl)acetamido)ethoxy)ethoxy)ethoxy)-N-(1-(2-oxoindoline-5-carbonyl)piperidin-4-yl)propanamide] was run?
Its GI50 is 0.001 to 0.1 µM.
